# Patent US12319697B2, “Process for preparing imidazole derivatives” (Bayer Aktiengesellschaft, priority 2018, dated 2025)
# Legend:
# [1] = log P[a] by reversed-phase HPLC (C18), LC-UV in the acidic range, EEC Directive 79/831 Annex V.A8; format: physicochemical; conditions: 0.9 ml/l formic acid in water and 1.0 ml/l formic acid in acetonitrile, gradient 10% to 95% acetonitrile; for chromatographic logP: reversed-phase HPLC column (C18)
# Protocol: (§1) The log P values were determined according to EEC Directive 79/831 Annex V.A8 by HPLC (high-performance liquid chromatography) on a reversed-phase column (C18) using the following methods: The log P[a] value is determined by LC-UV measurement in the acidic range using 0.9 ml/1 formic acid in water and 1.0 ml/1 formic acid in acetonitrile as mobile phases (linear gradient from 10% acetonitrile to 95% acetonitrile). Calibration was carried out using a homologous series of straight-chain alkan-2-ones (having 3 to 16 carbon atoms) with known log P values. The values between successive alkanones are determined by linear regression.
# [2] = log P[n] by reversed-phase HPLC (C18), LC-UV in the neutral range, EEC Directive 79/831 Annex V.A8; format: physicochemical; conditions: 79 mg/l ammonium carbonate in water and acetonitrile, gradient 10% to 95% acetonitrile; for chromatographic logP: reversed-phase HPLC column (C18)
# Protocol: as §1, with “acetonitrile). The log P[n] value is determined by LC-UV measurement in the neutral range using 79 mg/l ammonium carbonate in water and acetonitrile as mobile phases (linear gradient from 10% acetonitrile to 95% acetonitrile).” for “acetonitrile).”
SMILES,chromatographic logP [1],chromatographic logP [2],log P[a] ([1]; listed as Comparative Example),log P[n] ([2]; listed as Comparative Example)
CCSc1c(-c2nc3cc(SC(F)(F)F)nnc3n2C)nc(-c2ccc(Cl)cc2)n1C,4.51,4.34,–,–
CCSc1c(-c2nc3cc(C(F)(F)C(F)(F)F)nnc3n2C)nc(-c2ccc(Cl)cc2)n1C,4.82,4.6,–,–
CCSc1c(-c2nc3cc(SC(F)(F)F)nnc3n2C)nc(C2CC2)n1C,3.5,3.4,–,–
CCSc1c(-c2nc3cc(C(F)(F)C(F)(F)F)nnc3n2C)nc(C2CC2)n1C,3.85,3.75,–,–
CCSc1c(-c2nc3cc(C(F)(F)C(F)(F)F)nnc3n2C)nc(-c2ccc(Cl)s2)n1C,5.14,4.92,–,–
CCSc1c(-c2nc3cc(C(F)(F)C(F)(F)F)nnc3n2C)nc(-c2ccc(Cl)cn2)n1C,5.25,4.66,–,–
"CCSc1c(-c2nc3cc(C(F)(F)F)nnc3n2C)ncn1C [Example 1, 6-[5-(ethylsulfanyl)-1-methyl-1H-imidazol-4-yl]-7-methyl-3-(trifluoromethyl)-7H-imidazo[4,5-c]pyridazine]",2.26,2.37,–,–
"CCSc1c(-c2nc3cc(C(F)(F)F)nnc3n2C)nc(-c2ccc(Cl)cc2)n1C [Example 2, 6-[2-(4-chlorophenyl)-5-(ethylsulfanyl)-1-methyl-1H-imidazol-4-yl]-7-methyl-3-(trifluoromethyl)-7H-imidazo[4,5-c]pyridazine]",4.23,4.08,4.35,4.07

# Results, then the molecule that gave them:
chromatographic logP [1],chromatographic logP [2],log P[a] ([1]; listed as Comparative Example),log P[n] ([2]; listed as Comparative Example),SMILES
2.88,2.86,–,–,"CCSc1c(-c2nc3cc(C(F)(F)C(F)(F)F)nnc3n2C)ncn1C [Example 3, 6-[5-(ethylsulfanyl)-1-methyl-1H-imidazol-4-yl]-7-methyl-3-(pentafluoroethyl)-7H-imidazo[4,5-c]pyridazine]"
2.2,2.21,–,–,"CCS(=O)(=O)c1c(-c2nc3cc(C(F)(F)C(F)(F)F)nnc3n2C)ncn1C [Example 4, 6-[5-(ethylsulfonyl)-1-methyl-1H-imidazol-4-yl]-7-methyl-3-(pentafluoroethyl)-7H-imidazo[4,5-c]pyridazine]"
3.76,–,–,–,"CCSc1c(-c2nc3cc(C(F)(F)C(F)(F)F)nnc3n2C)nc(Br)n1C [Example 5, 6-[2-bromo-5-(ethylsulfanyl)-1-methyl-1H-imidazol-4-yl]-7-methyl-3-(pentafluoroethyl)-7H-imidazo[4,5-c]pyridazine]"
2.7,2.71,–,–,"CCSc1c(-c2nc3cc(C(F)(F)C(F)(F)F)ncc3n2C)ncn1C [Example 6, 2-[5-(ethylsulfanyl)-1-methyl-1H-imidazol-4-yl]-3-methyl-6-(pentafluoroethyl)-3H-imidazo[4,5-c]pyridine]"
2.92,3.23,–,–,"CCSc1c(-c2nc3cc(Br)cnc3n2C)nc(C2CC2)n1C [Example 7, 6-bromo-2-[2-cyclopropyl-5-(ethylsulfanyl)-1-methyl-1H-imidazol-4-yl]-3-methyl-3H-imidazo[4,5-b]pyridine]"
1.61,1.91,–,–,"CCSc1c(I)ncn1C [Example 8 Step 1, 5-(ethylsulfanyl)-4-iodo-1-methyl-1H-imidazole]"
2.77,2.68,–,–,"CCSc1c(I)nc(Br)n1C [Example 8 Step 2, 2-bromo-5-(ethylsulfanyl)-4-iodo-1-methyl-1H-imidazole]"
1.04,1.1,–,–,"Cn1cnc2cc(C(F)(F)F)ncc21 [Example 8 Step 3, 3-methyl-6-(trifluoromethyl)-3H-imidazo[4,5-c]pyridine]"
3.04,2.85,–,–,"CCSc1c(-c2nc3cc(C(F)(F)F)ncc3n2C)nc(Br)n1C [Example 8, 2-[2-bromo-5-(ethylsulfanyl)-1-methyl-1H-imidazol-4-yl]-3-methyl-6-(trifluoromethyl)-3H-imidazo[4,5-c]pyridine]"
